Data reported in patent US20230123585A1, “COMPOSITIONS AND METHODS FOR TREATING OR PREVENTING CANCER USING DEUBIQUITINASE INHIBITORS” (The University of Chicago, priority 2020, published 2023).
Peptide text beside a SMILES is read from it. * marks the point of attachment. Cbz = O=C(OCc1ccccc1)*

How the values were obtained:
A375 cells = test: Cell viability of control or METTL3 knockdown A375 cells after treatment with DNA damage repair modulators; type: cell-based, human; conditions: METTL3 knockdown versus control
Protocol: FIGS. 24A-24E: The synergistic damage effects of METTL3 knockdown with DNA damage repair modulators or inhibitors of specific DNA repair pathways in cancer cells. […] Error bars indicate mean±s.e.m. P values were determined by two-tailed t-test. (E) Analysis of dsDNA break in the control or METTL3 knockdown colon cancer cells. TUNEL assay was performed.

[1] = system: METTL3 / m^6A methyltransferase complex in A375 cells; test: Immunoblot of METTL3 / m^6A methyltransferase complex protein in A375 cell lysates; type: cell-based, human
Protocol: (§1) FIGS. 6A-6H: Phosphorylation of the m^6A Methyltransferase Complex May Affect Tumorigenesis. (A) Lysates of A375 stable transfectants harvested at different time points after treatment with cycloheximide (CHX) 10 μg/ml were analyzed by immunoblot. (B) LC-MS/MS quantification of the m^6A/A ratio in mRNA of A375 stable transfectants. (C) After 8 h treatment with 10 μM PD0325901 or 0.1 μM tramentib, cell lysates from A375 cells were analyzed by immunoblot. (D) LC-MS/MS quantification of the m^6A/A ratio in mRNA of A375 cells treated with 10 μM PD0325901 or 0.1 μM tramentib for 48 h. (E) After 8hr treatment with 10 μM EOAI3402143 (EOAI) or 30 μM vialinin A , cell lysates from A375 cells were analyzed by immunoblot. (F) A375 stable transfectants as indicated were treated with 3 μM EOAI3402143 (EOAI) or 10 μM vialinin A before measuring cell viability by SRB assay. Data are presented as relative to the R-WT cells without drug treatment (n=3 per group, data represent mean±SEM). (G) Immunofluorescence analysis of METTL3 (green) in SKBR3 cells treated with 1 μM tucatinib and 1 μM lapatinib for 8 hr. DAPI (blue) was used to mark the nucleus. (H) LC-MS/MS quantification of the m^6A/A ratio in mRNA of SKBR3 and BT474 cells treated with 1 μM tucatinib and 1 μM lapatinib for 48 h. (See also FIG. 14.)
(§2) FIGS. 11A-11G: USP5 is Required for ERK-Mediated METTL3 Stabilization. (A) A375 cells transfected with HA-ubiquitin (ub) were treated with 10 μM MG-132 and MEK inhibitor PD0325901 for 8 h. The ubiquitination of METTL3 was detected by IP with anti-METTL3 and immunoblot with anti-HA. (B) After 8 h treatment with 10 μM PD0325901 with or without 10 μM MG-132, cell lysates from A375 cells were analyzed by immunoblot. (C) A375 cells were treated with various concentrations of PD0325901 for 1 h. Cell lysates were subjected to IP with METTL3 antibody followed by immunoblot. (D) 293T cells transfected as indicated were subjected to IP/immunoblot analysis. (E) Immunofluorescence analysis of myc-METTL3 (green) in mESC stable transfectants. DAPI (blue) was used to mark the nucleus. (F) Lysates of 293T cells transfected as indicated were subjected to IP with anti-Flag antibody followed by immunoblot. (G) Immunofluorescence analysis of 293T cells co-transfected with myc-METTL3 (green), Flag-USP5 (red) with or without constitutively active B-RAF.
Immunoprecipitation, immunoblotting, and in vitro kinase assay. Immunoprecipitation (IP) and immunoblotting (IB) were performed as previously described (Sun et al., 2016). In brief, protein samples were isolated from respective cells by lysis in RIPA buffer (1% Triton X-100, 150 mM NaCl, 20 mM Na2PO4, pH 7.4) containing Halt Protease and Phosphatase Inhibitor Cocktail (Thermo Scientific). Subsequently, a BCA assay (Thermo Scientific) was used to determine the protein concentrations. For IP, indicated antibody and protein A/G magnetic beads (Thermo Scientific) were incubated with lysate at 4° C. overnight followed by washing and elution with sample buffer. Equal amounts of protein were separated by SDS-PAGE followed by wet transfer to PVDF membranes. Blots were blocked with 5% non-fat milk or BSA and incubated with respective primary antibody at 4° C. overnight. Primary antibodies were detected by HRP-linked secondary antibodies (Cell Signaling) together with SuperSignal West Pico Plus chemiluminescent substrate (Thermo Scientific) and imaged in a FluorChem R system (ProteinSimple).

p-METTL3 (S43) = p-METTL3 (S43) in A375 cells, IP with METTL3 antibody followed by immunoblot; type: cell-based, human; conditions: 1 h, 1 μM dabrafenib, 1 μM PLX-4720, 10 μM PD0325901, 0.1 μM trametinib
Excerpt: FIGS. 10A-10G: ERK Interacts and Phosphorylates METTL3 and WTAP. (A-C) Mass spectrometry detected S43, S50 and S525 phosphorylation in METTL3 in 293T cells co-transfected with B-RAF V600E. (D) Characterization of anti-p-METTL3 (S43) antibodies of 293T cells transfected as indicated with MEK S218D/S222D, HER2 V659E, B-RAF V600E and WT or non-phosphorylatable alanine mutant (3A) METTL3. (E) The METTL3 S43 phosphorylation was identified by in vitro kinase assays, in which purified METTL3-METTL14 were incubated with activated ERK2. (F) A375 cells were treated with 1 μM dabrafenib, 1 μM PLX-4720, 10 μM PD0325901, 0.1 μM tramentib for 1 h. Cell lysates were subjected to IP with METTL3 antibody followed by immunoblot. (G) Phos-tag SDS-PAGE showing the phosphorylation status of WT or non-phosphorylatable alanine mutants of mice WTAP in 293T cells co-transfected with B-RAF. 2A, T298A/S341A.
To investigate METTL3 phosphorylation by ERK inside cells, a polyclonal antibody was generated that targets S43-phosphorylated METTL3. This antibody recognizes S43-phosphorylated METTL3 but not a mutant form of METTL3, METTL3 3A, with all three phosphorylation serine sites replaced with alanine (FIG. 10D). This P-S43 antibody was then used as a tool to monitor METTL3 phosphorylation. […] Furthermore, the p-METTL3 (S43) in A375 cells, a human melanoma cell line with constitutively active ERK due to a B-RAF V600E mutation, was abrogated by treatments with B-RAF inhibitors (dabrafenib and PLX4720) or MEK inhibitors (PD0325901 and trametinib) (FIG. 10F), supporting that S43 phosphorylation on METTL3 is installed through the ERK pathway.
Immunoprecipitation, immunoblotting, and in vitro kinase assay. Immunoprecipitation (IP) and immunoblotting (IB) were performed as previously described (Sun et al., 2016). […] Primary antibodies were detected by HRP-linked secondary antibodies (Cell Signaling) together with SuperSignal West Pico Plus chemiluminescent substrate (Thermo Scientific) and imaged in a FluorChem R system (ProteinSimple).

[2] = system: mRNA m^6A in SKBR3 and BT474 cells; test: LC-MS/MS quantification of the m^6A/A ratio in mRNA of SKBR3 and BT474 cells; type: cell-based; conditions: 1 μM, 48 h
Protocol: as §1, with “(F) A375 stable transfectants as indicated were treated with 3 μM EOAI3402143 (EOAI) or 10 μM vialinin A before measuring cell viability by SRB assay. Data are presented as relative to the R-WT cells without drug treatment (n=3 per group, data represent mean±SEM). (G) Immunofluorescence analysis of METTL3 (green) in SKBR3 cells treated with 1 μM tucatinib and 1 μM lapatinib for 8 hr. DAPI (blue) was used to mark the nucleus.” left out, “(See also FIG. 14.)” left out
LC-MS/MS quantification of m^6A in poly(A) RNA. mRNA was extracted from the total RNA using 2 rounds of the Dynabeads mRNA purification kit. […] The nucleosides were quantified by using the nucleoside-to-base ion mass transitions of 282 to 150 (m^6A) and 268 to 136 (A). Quantification was carried out by comparison with a standard curve obtained from pure nucleoside. The ratio of m^6A to A was calculated based on the calibrated concentrations (Liu et al., 2018).

METTL3 in SKBR3 cells = test: Immunofluorescence analysis of METTL3 in SKBR3 cells; type: cell-based; conditions: 1 μM, 8 hr
Protocol: as §1, with “(See also FIG. 14.)” left out
Confocal Microscopy. […] Confocal fluorescence images were captured using Olympus FV1000 confocal spectral microscope.

ubiquitination of METTL3 = test: Ubiquitination of METTL3 in A375 cells transfected with HA-ubiquitin (IP anti-METTL3, immunoblot anti-HA); type: cell-based, human; conditions: 10 μM MG-132 and 10 μM EOAI3402143 or 30 μM vialinin A for 8 h
Protocol: as §2
FIGS. 14A-14I: Phosphorylation of the m^6A Methyltransferase Complex May Affect Tumorigenesis. […] (B) LC-MS/MS quantification of the m^6A/A ratio in mRNA of melanoma cell lines. (C) After 8 h treatment with 10 μM PD0325901 or 0.1 μM tramentib, cell lysates from HCT-116 cells were analyzed by immunoblot. […] The ubiquitination of METTL3 was detected by IP with anti-METTL3 and immunoblot with anti-HA. (F) After 8 hr treatment with 10 μM EOAI3402143 (EOAI) or 30 μM vialinin A, cell lysates from HCT-116 cells were analyzed by immunoblot. […] (I) LC-MS/MS quantification of the m^6A/A ratio in mRNA of breast cancer cell lines.
Immunoprecipitation, immunoblotting, and in vitro kinase assay. […] Primary antibodies were detected by HRP-linked secondary antibodies (Cell Signaling) together with SuperSignal West Pico Plus chemiluminescent substrate (Thermo Scientific) and imaged in a FluorChem R system (ProteinSimple).

O=c1[nH]cc(F)c(=O)[nH]1 [5-FU]
effect on cell viability of DNA damage agent with METTL3 knockdown (A375 cells): synergistic effects

C[C@@H]1COCCN1c1cc(C2([S@](C)(=N)=O)CC2)nc(-c2cc[nH]c3nccc2-3)n1 [AZD6738, ceralasertib]
cell death of METTL3 knockdown cells versus controls after DNA damage repair inhibitor (A375 cells): more severe cell death

CC(C)C[C@@H](C=O)NC(=O)[C@H](CC(C)C)NC(=O)[C@H](CC(C)C)NC(=O)OCc1ccccc1 [MG132] (Cbz-Leu-Leu-Leu-aldehyde)
PD0325901-induced degradation of METTL3 on addition of proteasome inhibitor ([1]; A375 cells, 10 μM PD0325901 with 10 μM MG-132, 8 h): restored

CCCS(=O)(=O)Nc1ccc(F)c(C(=O)c2c[nH]c3ncc(Cl)cc23)c1F [PLX4720]
p-METTL3 (S43) (p-METTL3 (S43)): abrogated

CC(C)(C)c1nc(-c2cccc(NS(=O)(=O)c3c(F)cccc3F)c2F)c(-c2ccnc(N)n2)s1 [dabrafenib]
p-METTL3 (S43) (p-METTL3 (S43)): abrogated

CS(=O)(=O)CCNCc1ccc(-c2ccc3ncnc(Nc4ccc(OCc5cccc(F)c5)c(Cl)c4)c3c2)o1 [lapatinib]
cellular mRNA m^6A methylation (m^6A/A ratio) [2]: reduce
METTL3 protein level (METTL3 in SKBR3 cells): reduce

Cc1cc(Nc2ncnc3ccc(NC4=NC(C)(C)CO4)cc23)ccc1Oc1ccn2ncnc2c1 [tucatinib]
cellular mRNA m^6A methylation (m^6A/A ratio) [2]: reduce
METTL3 protein level (METTL3 in SKBR3 cells): reduce

C[C@]1(c2nc3c(C(N)=O)cccc3[nH]2)CCCN1 [veliparib]
cell death of METTL3 knockdown cells versus controls after DNA damage repair inhibitor (A375 cells): more severe cell death

O=C(Cc1ccccc1)Oc1c(OC(=O)Cc2ccccc2)c(-c2ccc(O)cc2)c(O)c(O)c1-c1ccc(O)cc1 [vialinin]
METTL3 protein level ([1]; A375 cells (also HCT-116, FIG. 14F), 8 hr, 10 μM EOAI3402143 or 30 μM vialinin A): decreased
ubiquitination of METTL3 (ubiquitination of METTL3): increased

Bleomycin
effect on cell viability of DNA damage agent with METTL3 knockdown (A375 cells): synergistic effects
